Measured values reported in ChEMBL document CHEMBL3272133, “1-[4-(4-Chlorophenyl)-2-(2,6-dichlorophenylthio)-n-butyl]-1H-imidazole nitrate, a new potent antifungal agent” (J Med Chem, 1978).
The source made the active and inactive calls. The rule behind the calls is not given here.

Key:
Enterococcus faecalis = assay: Antibacterial activity against Streptococcus faecalis No. 8043-2 assessed as growth inhibition by broth microdilution method; type: functional
Trichophyton rubrum = assay: Antifungal activity against Trichophyton rubrum assessed as growth inhibition by agar dilution method; type: functional
Nannizzia gypsea = assay: Antifungal activity against Microsporum gypseum assessed as growth inhibition by agar dilution method; type: functional
Candida albicans [1] = assay: Antifungal activity against mixed infection of Candida albicans infected in mouse assessed as noninfected animals at 1% formulation administered vaginally bid for 4 days measured 6 hrs post last dose relative to placebo; type: functional
Candida albicans [2] = assay: Antifungal activity against Candida albicans ATCC 10231 assessed as growth inhibition by broth dilution method; type: functional
[3] = system: Trichophyton mentagrophytes; assay: Antifungal activity against Trichophyton mentagrophytes assessed as growth inhibition by agar dilution method; type: functional
Staphylococcus aureus [4] = assay: Antibacterial activity against Staphylococcus aureus No. 14154 assessed as growth inhibition by broth microdilution method; type: functional
Candida albicans [5] = assay: Antifungal activity against mixed infection of Candida albicans infected in mouse assessed as noninfected animals at 0.5% formulation administered vaginally bid for 4 days measured 6 hrs post last dose relative to placebo; type: functional
Cryptococcus neoformans = assay: Antifungal activity against Cryptococcus neoformans assessed as growth inhibition by broth dilution method; type: functional
Candida albicans [6] = assay: Antifungal activity against Candida albicans infected in mouse assessed as noninfected animals at 0.5% formulation in neat PEG 400 solution administered vaginally bid for 4 days measured 6 hrs post last dose relative to placebo; type: functional
Candida albicans [7] = assay: Antifungal activity against mixed infection of Candida albicans infected in mouse assessed as noninfected animals at 0.2% formulation administered vaginally bid for 4 days measured 6 hrs post last dose relative to placebo; type: functional
Candida albicans [8] = assay: Antifungal activity against mixed infection of Candida albicans infected in mouse assessed as noninfected animals at 2% commercial cream formulation administered vaginally bid for 4 days measured 6 hrs post last dose relative to placebo; type: functional
Candida albicans [9] = assay: Antifungal activity against Candida albicans infected in mouse assessed as noninfected animals at 2% formulation in modified PEG 400 solution administered vaginally bid for 4 days measured on day 7 relative to placebo; type: functional, organism-based
Candida albicans [10] = assay: Antifungal activity against Candida albicans infected in mouse assessed as noninfected animals at 0.5% formulation in neat PEG 400 solution administered vaginally bid for 4 days measured on day 7 relative to placebo; type: functional
Candida albicans [11] = assay: Antifungal activity against Candida albicans infected in mouse assessed as noninfected animals at 2% formulation in neat PEG 400 solution administered vaginally bid for 4 days measured 6 hrs post last dose relative to placebo; type: functional
Epidermophyton floccosum = assay: Antifungal activity against Epidermophyton floccosum assessed as growth inhibition by agar dilution method; type: functional
Candida albicans [12] = assay: Antifungal activity against Candida albicans infected in mouse assessed as noninfected animals at 2% formulation in neat PEG 400 solution administered vaginally bid for 4 days measured on day 7 relative to placebo; type: functional
[13] = system: Trichophyton mentagrophytes; assay: Antifungal activity against Trichophyton mentagrophytes infected in guinea pig assessed as noninfected animals at 0.5% formulation in steryl alcohol, cetyl alcohol, Span 60, Tween 60, propylene glycol, mineral oil, and water administered qd for 5 days measured on day 4; type: functional
Candida albicans [14] = assay: Antifungal activity against mixed infection of Candida albicans infected in mouse assessed as noninfected animals at 1% formulation administered vaginally bid for 4 days measured on day 7 relative to placebo; type: functional
Candida albicans [15] = assay: Antifungal activity against mixed infection of Candida albicans infected in mouse assessed as noninfected animals at 0.5% formulation administered vaginally bid for 4 days measured on day 7 relative to placebo; type: functional
Candida albicans [16] = assay: Antifungal activity against mixed infection of Candida albicans infected in mouse assessed as noninfected animals at 2% formulation administered vaginally bid for 4 days measured on day 7 relative to placebo; type: functional
Candida albicans [17] = assay: Antifungal activity against mixed infection of Candida albicans infected in mouse assessed as noninfected animals at 2% formulation administered vaginally bid for 4 days measured 6 hrs post last dose relative to placebo; type: functional
Streptococcus pyogenes = assay: Antibacterial activity against Streptococcus pyogenes No. 8668 assessed as growth inhibition by broth microdilution method; type: functional
Candida albicans [18] = assay: Antifungal activity against mixed infection of Candida albicans infected in mouse assessed as noninfected animals at 0.2% formulation administered vaginally bid for 4 days measured on day 7 relative to placebo; type: functional
Trichophyton tonsurans = assay: Antifungal activity against Trichophyton tonsurans assessed as growth inhibition by agar dilution method; type: functional
Candida albicans [19] = assay: Antifungal activity against Candida albicans infected in mouse assessed as noninfected animals at 1% formulation in neat PEG 400 solution administered vaginally bid for 4 days measured on day 7 relative to placebo; type: functional
[20] = system: Trichophyton mentagrophytes; assay: Antifungal activity against Trichophyton mentagrophytes infected in guinea pig assessed as noninfected animals at 0.5% formulation in steryl alcohol, cetyl alcohol, Span 60, Tween 60, propylene glycol, mineral oil, and water administered qd for 5 days measured on day 14; type: functional
Staphylococcus aureus [21] = assay: Antibacterial activity against Staphylococcus aureus No. 6538 P assessed as growth inhibition by broth microdilution method; type: functional
[22] = Antifungal activity against Trichophyton concentricum assessed as growth inhibition by agar dilution method; type: functional
[23] = system: Trichophyton mentagrophytes; assay: Antifungal activity against Trichophyton mentagrophytes infected in guinea pig assessed as noninfected animals at 0.5% formulation in steryl alcohol, cetyl alcohol, Span 60, Tween 60, propylene glycol, mineral oil, and water administered qd for 5 days measured on day 7; type: functional
Candida albicans [24] = assay: Antifungal activity against mixed infection of Candida albicans infected in mouse assessed as noninfected animals at 2% commercial cream formulation administered vaginally bid for 4 days measured on day 7 relative to placebo; type: functional
Microsporum canis = assay: Antifungal activity against Microsporum canis assessed as growth inhibition by agar dilution method; type: functional
Candida albicans [25] = assay: Antifungal activity against Candida albicans ATCC 14053 assessed as growth inhibition by broth dilution method; type: functional
Candida albicans [26] = assay: Antifungal activity against Candida albicans infected in mouse assessed as noninfected animals at 4% formulation in neat PEG 400 solution administered vaginally bid for 4 days measured on day 7 relative to placebo; type: functional
Candida albicans [27] = assay: Antifungal activity against Candida albicans infected in mouse assessed as noninfected animals at 1% formulation in neat PEG 400 solution administered vaginally bid for 4 days measured 6 hrs post last dose relative to placebo; type: functional
Candida albicans [28] = assay: Antifungal activity against Candida albicans infected in mouse assessed as noninfected animals at 4% formulation in neat PEG 400 solution administered vaginally bid for 4 days measured 6 hrs post last dose relative to placebo; type: functional
Candida albicans [29] = assay: Antifungal activity against Candida albicans infected in mouse assessed as noninfected animals at 100000 U/g administered vaginally bid for 4 days measured 6 hrs post last dose relative to placebo; type: functional, organism-based
Candida albicans [30] = assay: Antifungal activity against Candida albicans infected in mouse assessed as noninfected animals at 100000 U/g administered vaginally bid for 4 days measured on day 7 relative to placebo; type: functional, organism-based

Clc1ccc(COC(Cn2ccnc2)c2ccc(Cl)cc2Cl)c(Cl)c1 (stereo not drawn) [MICONAZOLE]
GI (Enterococcus faecalis): 3.12 µg/mL | GI (Trichophyton rubrum): 0.5 µg/mL | GI (Nannizzia gypsea): 0.05 µg/mL | Activity (Candida albicans [1]): 20% | GI (Candida albicans [2]): 30 µg/mL | GI [3]: 0.5 µg/mL | GI (Staphylococcus aureus [4]): 12.5 µg/mL | Activity (Candida albicans [5]): 20% | GI (Cryptococcus neoformans): <=0.3 ug ml-1 | Activity (Candida albicans [6]): 30% | Activity (Candida albicans [7]): 15% | Activity (Candida albicans [8]): 33% | Activity (Candida albicans [9]): inactive | Activity (Candida albicans [10]): 25% | Activity (Candida albicans [11]): 50% | GI (Epidermophyton floccosum): 5 µg/mL | Activity (Candida albicans [12]): 37% | Activity [13]: 70% | Activity (Candida albicans [14]): 25% | Activity (Candida albicans [15]): 11% | Activity (Candida albicans [16]): 15% | Activity (Candida albicans [17]): 10% | GI (Streptococcus pyogenes): <=0.0008 ug ml-1 | Activity (Candida albicans [18]): 20% | GI (Trichophyton tonsurans): 0.5 µg/mL | Activity (Candida albicans [19]): 25% | Activity [20]: 10% | GI (Staphylococcus aureus [21]): 6.25 µg/mL | GI [22]: 0.5 µg/mL | Activity [23]: 80% | Activity (Candida albicans [24]): 25% | GI (Microsporum canis): 0.5 µg/mL | GI (Candida albicans [25]): 30 µg/mL | Activity (Candida albicans [26]): 70% | Activity (Candida albicans [27]): 60% | Activity (Candida albicans [28]): 75%

NYSTATIN
Activity (Candida albicans [29]): 10% | Activity (Candida albicans [30]): 0%
